Here are results for ten molecules from paper PMC2865816, “Synthesis and Antiviral Studies of Novel N-Sulphonamidomethyl piperazinyl Fluoroquinolones” (Indian Journal of Pharmaceutical Sciences, 2009).

Converted amounts (≈) assume the structure as drawn. Like-named read-outs stand apart in the source and are kept apart here.

The test system of one series is HIV-1 (IIIB). Description: Inhibition of HIV-1 (IIIB) induced cytopathic effect in MT-4 cells, MTT. Type of series: cell-based. The conditions noted are these: for EC50: MTT, 5 d, read-out: EC50, concentration achieving 50% protection of MT-4 cells against the cytopathic effect of HIV.
In the next series the test system is mock-infected MT-4 cells. Nature of the series: Cytotoxicity against mock-infected MT-4 cells, MTT. The series is classed as cell-based. Here is the method: (§1) Compounds were tested for their inhibitory effects against replication of HIV-1 (IIIB) in MT-4 cells[1011]. The MT-4 cells were grown and maintained in RPMI 1640 DM medium supplemented with 10% (v/v) heat-inactivated fetal calf serum (FCS), 2 mM-glutamine, 0.1% sodium bicarbonate and 20 μg/ml gentamicin (culture medium). Inhibitory effect of test compounds on HIV-1 replications was monitored by inhibition of virus-induced cytopathic effect in MT-4 cells and was estimated by MTT assay. Briefly, 50 μl of HIV-1 (100-300 CCID50) were added to a flat-bottomed microtiter tray with 50 μl of medium containing various concentrations of compounds. MT-4 cells were added at a final concentration of 6×10^5 cells/ml. After 5 d of incubation at 37°, the number of viable cells were determined by the 3-(4,5-dimethylthiazol-2-yl)-2,5-diphenyl tetrazolium bromide (MTT) method. Cytotoxicity of test compounds against mock-infected MT-4 cells was also assessed by the MTT method. AntiHIV activity and cytotoxicity of standard AZT were also performed by a similar method in MT-4 cells.

The test system of the next series is influenza A (H1N1). Description: microbe, parasite or virus in culture. Type of series: cell-based. The conditions noted are these: strain A(H1N1), MDCK cells; for EC50: Influenza A virus, CPE inhibition, neutral red, read-out: EC50, 50% effective (virus-inhibitory) concentration.
The next series relates to influenza A (H3N2). Nature of the series: microbe, parasite or virus in culture. The conditions noted are these: for EC50: Influenza A virus, H3N2, MDCK, read-out: EC50, 50% effective (virus-inhibitory) concentration; for Selectivity Index (CC50 divided by EC50): strain A(H3N2), MDCK cells. The series is classed as cell-based.
The test system of a further series is influenza A (H5N1). Nature of the series: microbe, parasite or virus in culture. The following applies: for EC50: Influenza A virus, H5N1, MDCK, read-out: EC50, 50% effective (virus-inhibitory) concentration; for Selectivity Index (CC50 divided by EC50): strain A(H5N1), MDCK cells. Type of series: cell-based.
Another series concerns influenza B. Nature of the series: microbe, parasite or virus in culture. The conditions noted are these: strain B, MDCK cells; for EC50: Influenza B virus, CPE inhibition, neutral red, read-out: EC50, 50% effective (virus-inhibitory) concentration. Type of series: cell-based.
Series [1] can be described thus: Cytotoxicity against mock-infected MT-4 cells, MTT. Type of series: cell-based. The conditions noted are these: human; mock-infected MT-4 cells, MTT; read-out: CC50, concentration required to reduce the viability of mock-infected MT-4 cells by 50%. On the procedure: as §1
The nature of the next series: in vitro. The conditions noted are these: dog.
Series [2] deals with influenza A and B viruses. Nature of the series: microbe, parasite or virus in culture. The series is classed as cell-based. The following applies: MDCK, read-out: concentration inhibiting the replication of influenza A and B viruses.
[3] abbreviates: Human immunodeficiency virus 1, MT4, 120 h.

Turning to `Cc1cn([C@H]2C[C@H](N=[N+]=[N-])[C@@H](CO)O2)c(=O)[nH]c1=O` [AZT, reference compound], in the series with HIV-1 (IIIB), the “Max Prot” value was found to be 106 and the EC50 came out at 0.0064 µM. Also, the CC50 in the series with mock-infected MT-4 cells (mock-infected MT-4 cells, MTT, read-out: CC50, concentration required to reduce the viability of mock-infected MT-4 cells by 50%) was 64.5 µM.

As for `Cc1cc(C)nc(NS(=O)(=O)c2ccc(NCN3CCN(c4cc5c(cc4F)c(=O)c(C(=O)O)cn5C4CC4)CC3)cc2)n1` [CF-SDM], the EC50 in the series on influenza A (H1N1) is 18 µg/mL (≈ 29 µM); in the series with influenza A (H3N2) it was 30 µg/mL (≈ 48.3 µM); in the series with influenza A (H5N1), greater than 100 µg/mL; in the series on influenza B, 53 µg/mL (≈ 85.3 µM); with HIV-1 (IIIB) (setting [3]) it was greater than 70.8 µM. In addition, the “Selectivity Index (CC50 divided by EC50)” value is given as greater than 5.6 with influenza A (H1N1), greater than 3.3 in the series on influenza A (H3N2) and greater than 2 with influenza B. In addition, in [1], the CC50 at 5 d came out at 70.8 µM. Also, in “in vitro”, the CC50 is greater than 100 µg/mL.

Regarding `O=C(O)c1cn(C2CC2)c2cc(N3CCN(CNc4ccc(S(=O)(=O)Nc5ncccn5)cc4)CC3)c(F)cc2c1=O` [CF-SD], the EC50 with influenza A (H1N1) was 16 µg/mL (≈ 27 µM); in the series with influenza A (H3N2) it was 41 µg/mL (≈ 69.1 µM); in the series with influenza A (H5N1), 33 µg/mL (≈ 55.6 µM); with influenza B it was 32 µg/mL (≈ 53.9 µM); in the series on HIV-1 (IIIB) (setting [3]), greater than 74.1 µM. For the same molecule, the “Selectivity Index (CC50 divided by EC50)” value in the series on influenza A (H1N1) is greater than 6.1; with influenza A (H5N1) it was greater than 3; in the series with influenza B it was greater than 3. Besides, the CC50 at 5 d in series [1] is 74.1 µM. In the series “in vitro”, this molecule showed a CC50 greater than 100 µg/mL.

Consider `COc1c(N2CCN(CNc3ccc(S(N)(=O)=O)cc3)CC2)c(F)cc2c(=O)c(C(=O)O)cn(C3CC3)c12` [GF-SA], for which the EC50 is greater than 100 µg/mL in the series with influenza A (H1N1); greater than 100 µg/mL in the series on influenza A (H3N2); 32 µg/mL (≈ 58.7 µM) with influenza A (H5N1); 36 µg/mL (≈ 66 µM) in the series with influenza B; greater than 58.7 µM in the series with HIV-1 (IIIB) (setting [3]). The “Selectivity Index (CC50 divided by EC50)” value in the series on influenza A (H5N1) and in the series with influenza B was greater than 3 each time. Moreover, the CC50 at 5 d in series [1] was found to be 58.7 µM. This molecule returned a CC50 in “in vitro” greater than 100 µg/mL.

Regarding `COc1c(N2CCN(CNc3ccc(S(=O)(=O)Nc4nc(C)cc(C)n4)cc3)CC2)c(F)cc2c(=O)c(C(=O)O)cn(C3CC3)c12` [GF-SDM], the EC50 in the series on influenza A (H1N1) is 33 µg/mL (≈ 50.6 µM); in the series on influenza A (H3N2) it was 38 µg/mL (≈ 58.3 µM); with influenza A (H5N1), 19 µg/mL (≈ 29.2 µM); in the series with influenza B, 11 µg/mL (≈ 16.9 µM); with HIV-1 (IIIB) (setting [3]), greater than 39.4 µM. The “Selectivity Index (CC50 divided by EC50)” value in the series with influenza A (H1N1) was greater than 3.1; in the series with influenza A (H3N2), greater than 2.6; in the series with influenza A (H5N1) it was greater than 5; in the series with influenza B, greater than 9. Also, the CC50 at 5 d in series [1] stood at 39.4 µM. The “cytostatic activity in MT-4 cells (in words)” value in the series on mock-infected MT-4 cells (MT-4 cells) is “marked cytostatic activity”. In addition, in “in vitro”, the CC50 was greater than 100 µg/mL.

Regarding `COc1c(N2CCN(CNc3ccc(S(=O)(=O)Nc4ncccn4)cc3)CC2)c(F)cc2c(=O)c(C(=O)O)cn(C3CC3)c12` [GF-SD], the EC50 in the series on influenza A (H1N1) is 34 µg/mL (≈ 54.5 µM); in the series with influenza A (H3N2), 52 µg/mL (≈ 83.4 µM); in the series on influenza A (H5N1), greater than 100 µg/mL; in the series with influenza B, 97 µg/mL (≈ 156 µM); with HIV-1 (IIIB) (setting [3]) it was greater than 70.1 µM. The “Selectivity Index (CC50 divided by EC50)” value with influenza A (H1N1) is reported as greater than 3; in the series on influenza A (H3N2), greater than 1.9; with influenza B, greater than 1. In addition, in [1], the CC50 at 5 d turned out to be 70.1 µM. For the same molecule, the CC50 in the series “in vitro” was greater than 100 µg/mL.

In the case of `CCn1cc(C(=O)O)c(=O)c2cc(F)c(N3CCN(CNc4ccc(S(N)(=O)=O)cc4)CC3)cc21` [NF-SA], the EC50 in the series with influenza A (H1N1) is greater than 100 µg/mL; in the series with influenza A (H3N2), greater than 100 µg/mL; in the series on influenza A (H5N1), greater than 100 µg/mL; in the series on influenza B it was 80 µg/mL (≈ 159 µM); in the series with HIV-1 (IIIB) (setting [3]), greater than 75.5 µM. Also, the “Selectivity Index (CC50 divided by EC50)” value with influenza B is on record as greater than 1.3. For the same molecule, in [1], the CC50 at 5 d amounted to 75.5 µM. Besides, in “in vitro”, the CC50 was greater than 100 µg/mL.

Regarding `CCn1cc(C(=O)O)c(=O)c2cc(F)c(N3CCN(CNc4ccc(S(=O)(=O)Nc5nc(C)cc(C)n5)cc4)CC3)cc21` [NF-SDM], the EC50 in the series on HIV-1 (IIIB) (setting [3]) is greater than 56.3 µM. Moreover, in series [1], the CC50 at 5 d stood at 56.3 µM.

For the molecule `CCn1cc(C(=O)O)c(=O)c2cc(F)c(N3CCN(CNc4ccc(S(=O)(=O)Nc5ncccn5)cc4)CC3)cc21` [NF-SD], the EC50 was greater than 100 µg/mL in the series on influenza A (H1N1); greater than 100 µg/mL in the series on influenza A (H3N2); greater than 32 µg/mL in the series with influenza A (H5N1); greater than 32 µg/mL with influenza B; greater than 66.8 µM in the series on HIV-1 (IIIB) (setting [3]). The CC50 at 5 d in series [1] was 66.8 µM. In addition, the CC50 at 3 d in “in vitro” came to 32 µg/mL (≈ 55 µM).

`NC(=O)c1ncn([C@@H]2O[C@H](CO)[C@@H](O)[C@H]2O)n1` [Ribavirin, ribavirin, reference compound]: the EC50 in the series on influenza A (H1N1) is 3.7 µg/mL (≈ 15.2 µM); with influenza A (H3N2), 5.9 µg/mL (≈ 24.2 µM); in the series on influenza A (H5N1), 4.3 µg/mL (≈ 17.6 µM); with influenza B it was 5.5 µg/mL (≈ 22.5 µM); in series [2], 3.7 to 5.9 µg/mL (≈ 15.2 to 24.2 µM). The “Selectivity Index (CC50 divided by EC50)” value is greater than 27 in the series on influenza A (H1N1), greater than 17 with influenza A (H3N2), greater than 23 in the series on influenza A (H5N1) and greater than 18 with influenza B. The molecule further registered a CC50 in the series “in vitro” greater than 100 µg/mL.
